This note sets out measurements from ChEMBL document CHEMBL1201862, “PubChem BioAssay data set” (2004).

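Five compound concentrations were applied to cells in 96-well plates for 48 hours; endpoints were derived by simple linear interpolation of the resulting dose-response curve. GI50 is the concentration that inhibits growth by half.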 Calls of active or inactive are those of the source. Cut-off read from the data, not from the text of the source: active = GI50 up to about 1.1 µM and inactive = higher. Where a SMILES comes first, the peptide text is derived from it. The star is where a group is joined. Boc = CC(C)(C)OC(=O)*; OSu = O=C1CCC(=O)N1O*

Among the test systems are HT-29; SK-OV-3; LOX IMVI; SN12C; NCI/ADR-RES; RXF 393; HCT-15; SK-MEL-28; NCI-H522; U-251; SNB-75; OVCAR-4; BT-549; PC-3; OVCAR-8; COLO 205; A498; Malme-3M; EKVX; Hs-578T.
Holding throughout (assay): NCI tumour cell line growth inhibition, 48 h

`Cc1cccc(-c2nc(-c3cnccn3)n(Cc3ccccc3)n2)c1`: the GI50 in the assay on HT-29 is > 100 µM (inactive); in the assay on SK-OV-3, 65.6 µM (inactive); in the assay on LOX IMVI, > 100 µM (inactive); in the assay with SN12C, > 100 µM (inactive); in the assay with NCI/ADR-RES, > 100 µM (inactive); in the assay with RXF 393, 29.6 µM (inactive). The GI50 was more than 100 µM with HCT-15; 68.5 µM (inactive) with SK-MEL-28; > 100 µM (inactive) in the assay on NCI-H522; > 100 µM (inactive) in the assay on U-251; < 0.01 µM (active) with SNB-75; 27.2 µM (inactive) in the assay on OVCAR-4. In addition, the GI50 in the assay with BT-549 was > 100 µM (inactive); in the assay with PC-3, > 100 µM (inactive); in the assay with OVCAR-8, 99.1 µM (inactive); in the assay with COLO 205 it was > 100 µM (inactive).

As for `[N-]=[N+]=CC(=O)OC(CCl)CCl`, the GI50 with HT-29 is > 100 µM (inactive); with SK-OV-3, > 100 µM (inactive); with LOX IMVI, 76 µM (inactive); in the assay with A498, > 100 µM (inactive); in the assay with Malme-3M, > 100 µM (inactive); in the assay with SN12C it was > 100 µM (inactive). The GI50 in the assay on RXF 393 is > 100 µM (inactive); with HCT-15, more than 100 µM; in the assay with SK-MEL-28, > 100 µM (inactive); in the assay on NCI-H522, > 100 µM (inactive); in the assay on U-251, > 100 µM (inactive); with OVCAR-4 it was > 100 µM (inactive). In addition, the GI50 in the assay with EKVX, in the assay on BT-549, in the assay on PC-3 and in the assay with COLO 205 was > 100 µM (inactive) throughout.

Take `Cc1c2ccccc2c(C)n2c1nc1cc3ccccc3cc12`: the GI50 with HT-29 is 0.647 µM (active); with SK-OV-3, 2.45 µM (inactive); in the assay on Malme-3M it was 1.28 µM (inactive); with SN12C it was 1.79 µM (inactive); in the assay with NCI/ADR-RES, 0.897 µM (active); in the assay on Hs-578T, 1.25 µM (inactive). The GI50 is 1.36 µM with HCT-15; 1.46 µM (inactive) in the assay on SK-MEL-28; 1.74 µM (inactive) in the assay with NCI-H522; 1.65 µM (inactive) in the assay on U-251; 1.57 µM (inactive) in the assay with SNB-75; 1.56 µM (inactive) with OVCAR-4. The GI50 with EKVX is 1.64 µM (inactive); with BT-549, 1.84 µM (inactive); with PC-3 it was 1.27 µM (inactive); in the assay with OVCAR-8, 1.04 µM (active); in the assay on COLO 205, 1.34 µM (inactive).

With `CC1=NN(c2cccc(Cl)c2)C(=N/c2nc3ccccc3s2)/C1=C\c1ccc(Cl)cc1`, the GI50 is 17.9 µM (inactive) with HT-29; 36.4 µM (inactive) in the assay on SK-OV-3; 18.2 µM (inactive) in the assay on LOX IMVI; 22.2 µM (inactive) in the assay with A498; 22.5 µM (inactive) in the assay on NCI/ADR-RES; 20.3 µM (inactive) in the assay with RXF 393. For the same compound, the GI50 in the assay with Hs-578T was 23 µM (inactive); with HCT-15, 14.2 µM; in the assay with SK-MEL-28, 20.8 µM (inactive); with NCI-H522, 18.7 µM (inactive); with U-251, 14.8 µM (inactive); with SNB-75 it was 26.4 µM (inactive). The results for the GI50 in the assay on EKVX, in the assay on PC-3 and with OVCAR-8 were 33.2 µM (inactive), 16.4 µM (inactive) and 19.8 µM (inactive), respectively.

As to `CCCC(=O)n1[nH]c(=O)n(-c2ccc(Cl)cc2)c1=O`, the GI50 in the assay on HT-29 is > 100 µM (inactive); in the assay on SK-OV-3, > 100 µM (inactive); in the assay on LOX IMVI it was > 100 µM (inactive); in the assay on Malme-3M, 43.4 µM (inactive); in the assay with SN12C it was > 100 µM (inactive); in the assay with NCI/ADR-RES, > 100 µM (inactive). For the same compound, the GI50 with RXF 393 is > 100 µM (inactive); in the assay with Hs-578T it was > 100 µM (inactive); in the assay on HCT-15, more than 100 µM; in the assay with SK-MEL-28, > 100 µM (inactive); in the assay with U-251, > 100 µM (inactive); in the assay on SNB-75, > 100 µM (inactive). Besides, the GI50 in the assay with OVCAR-4, in the assay with EKVX, in the assay on BT-549, with PC-3, with OVCAR-8 and in the assay on COLO 205 was > 100 µM (inactive) in each case.

In the case of `CCCCCC(=O)OCC(=O)[C@H]1[C@H](C)C[C@H]2[C@@H]3C[C@H](F)C4=C/C(=N/OC(=O)c5cccc6c(=O)c7ccccc7[nH]c56)C=C[C@]4(C)[C@H]3[C@@H](O)C[C@@]21C`, the GI50 is 21.7 µM (inactive) with HT-29; 24.8 µM (inactive) in the assay with SK-OV-3; 17.6 µM (inactive) in the assay with LOX IMVI; 12.5 µM (inactive) in the assay with Malme-3M; 20 µM (inactive) in the assay on SN12C; 11.2 µM (inactive) with NCI/ADR-RES. The GI50 with Hs-578T is 31.7 µM (inactive); in the assay on HCT-15 it was 26.6 µM; in the assay with NCI-H522, 14.3 µM (inactive); in the assay on U-251 it was 45.9 µM (inactive); in the assay with SNB-75 it was 19.1 µM (inactive); in the assay on OVCAR-4, 27.4 µM (inactive). The GI50 was 25.5 µM (inactive) with EKVX; 16.5 µM (inactive) with BT-549; 20.3 µM (inactive) in the assay with PC-3; 10.8 µM (inactive) with OVCAR-8; 24.3 µM (inactive) with COLO 205.

Consider `CC(C)(C)OC(=O)NC(Cc1ccc(O)cc1)C(=O)NC(CCCCN)C(=O)NC(Cc1ccc(O)cc1)C(=O)NC(CCCCN)C(=O)ON1C(=O)CCC1=O` (configuration not stated) (Boc-YKYK-OSu; configuration not given here), for which the GI50 with HT-29 is 89.3 µM (inactive); in the assay with A498 it was > 100 µM (inactive); in the assay on Malme-3M, > 100 µM (inactive); with SN12C, > 100 µM (inactive); with RXF 393, > 100 µM (inactive); in the assay with Hs-578T it was > 100 µM (inactive). For the same compound, the GI50 in the assay with HCT-15 was more than 100 µM; with SK-MEL-28, > 100 µM (inactive); with U-251, > 100 µM (inactive); in the assay on SNB-75 it was > 100 µM (inactive); in the assay on EKVX, > 100 µM (inactive); in the assay on BT-549 it was > 100 µM (inactive). Also, the GI50 with PC-3, in the assay on OVCAR-8 and in the assay with COLO 205 was > 100 µM (inactive) throughout.

As to `CC(=O)OC1CC(O)CC2=CCC3C4CCC(C(C)(O)C(O)CC5COC(=O)C5C)C4(C)CCC3C21C` (configuration not stated), the GI50 in the assay with HT-29, with SK-OV-3, in the assay on LOX IMVI, with A498, with SN12C and in the assay on RXF 393 was > 25 µM (inactive) each time. Besides, the GI50 in the assay with Hs-578T is 10.3 µM (inactive); in the assay on HCT-15, more than 25 µM; in the assay on SK-MEL-28 it was 24.5 µM (inactive); in the assay with NCI-H522 it was 12.8 µM (inactive); in the assay with U-251, > 25 µM (inactive); with SNB-75, 7.08 µM (inactive). Also, the GI50 with OVCAR-4 was > 25 µM (inactive); in the assay with EKVX, 8.89 µM (inactive); with BT-549, > 25 µM (inactive); in the assay with PC-3, > 25 µM (inactive); with OVCAR-8, > 25 µM (inactive); in the assay with COLO 205 it was > 25 µM (inactive).
